Measured values published in ChEMBL document CHEMBL1148239, “Studies on intestinal permeability of cirrhotic patients by analysis lactulose and mannitol in urine with HPLC/RID/MS” (Bioorg Med Chem Lett, 2004).
Values joined by “and” are separate entries in the source; they are usually repeats but may differ in a detail not shown here. Equal values may be shown once.

Assays:
[1] = Percent of compound in cirrhotic patients of spontaneous ascitic fluid infection (Group A and B); assay type: ADME; conditions: human
[2] = Percent of compound in cirrhotic patients of spontaneous ascitic fluid infection after dosing with normal antibiotics and lactose; assay type: ADME; conditions: human, in vivo
[3] = Percent of compound in cirrhotic patients of spontaneous ascitic fluid infection before dosing with normal antibiotics; assay type: ADME; conditions: human, in vivo
[4] = Percent of compound in cirrhotic patients of spontaneous ascitic fluid infection before dosing with normal antibiotics and lactose; assay type: ADME; conditions: human, in vivo
[5] = Percent of compound in cirrhotic patients of sterile ascitic fluid (Group C); assay type: ADME; conditions: human
[6] = Percent of compound in healthy individuals (Group D); assay type: ADME; conditions: human
[7] = Percent recovery of 100 ug/mL compound after administration in cirrhotic patients; assay type: ADME; conditions: human, in vivo
[8] = Percent recovery of 10 ug/mL compound after administration in cirrhotic patients; assay type: ADME; conditions: human, in vivo
[9] = Percent recovery of 500 ug/mL compound after administration in cirrhotic patients; assay type: ADME; conditions: human, in vivo
[10] = species on record: Homo sapiens; assay: Ratio of lactulose and mannitol in cirrhotic patients of spontaneous ascitic fluid infection (Group A and B); assay type: ADME, organism-based; conditions: in vivo
[11] = species on record: Homo sapiens; assay: Ratio of lactulose and mannitol in cirrhotic patients of sterile ascitic fluid (Group C); assay type: ADME, organism-based; conditions: in vivo
[12] = species on record: Homo sapiens; assay: Ratio of lactulose and mannitol in healthy individuals (Group D); assay type: ADME, organism-based; conditions: in vivo
[13] = system: Homo sapiens; assay: Ratio of percent compound after dosing in cirrhotic patients of spontaneous ascitic fluid infection; assay type: ADME, organism-based; conditions: in vivo
[14] = system: Homo sapiens; assay: Ratio of percent compound before and after dosing in cirrhotic patients of spontaneous ascitic fluid infection; assay type: ADME, organism-based; conditions: in vivo
[15] = system: Homo sapiens; assay: Ratio of percent compound before dosing in cirrhotic patients of spontaneous ascitic fluid infection; assay type: ADME, organism-based; conditions: in vivo
[16] = Percent of compound in cirrhotic patients of spontaneous ascitic fluid infection after dosing with normal antibiotics; assay type: ADME; conditions: human, in vivo

Row | Compound | Activity [1] | Activity [2] | Activity [3] | Activity [4] | Activity [5] | Activity [6] | Recovery [7] | Recovery [8] | Recovery [9] | Ratio [10] | Ratio [11] | Ratio [12] | Ratio [13] | Ratio [14] | Ratio [15] | Activity [16]
1 | OC[C@H]1O[C@@H](O[C@@H]2[C@@H](CO)O[C@](O)(CO)[C@H]2O)[C@H](O)[C@@H](O)[C@H]1O [LACTULOSE] | 0.00719% | 0.0044% | 0.007% | 0.0071% | 0.00476% | 0.00177% | 93.7% | 93.1% | 97% | 0.1003 | 0.0715 | 0.0209 | 0.0814 and 0.0572 | 0.1009 | 0.1009 | 0.006%
2 | OC[C@@H](O)[C@@H](O)[C@H](O)[C@H](O)CO [MANNITOL] | 0.0741% | 0.0732% | 0.0735% | 0.0733% | 0.0691% | 0.0838% | 95.2% | 93.3% | 97.1% | 0.1003 | 0.0715 | 0.0209 | 0.0814 and 0.0572 | 0.0985 | 0.1009 | 0.0782%
